The record followed here is ChEMBL document CHEMBL1146304, “Alpha-methyltryptamine sulfonamide derivatives as novel glucocorticoid receptor ligands” (Bioorg Med Chem Lett, 2007).

The target of one test is T1, Progesterone receptor (Homo sapiens, UniProt P06401).
T1 sequence (P06401 whole entry): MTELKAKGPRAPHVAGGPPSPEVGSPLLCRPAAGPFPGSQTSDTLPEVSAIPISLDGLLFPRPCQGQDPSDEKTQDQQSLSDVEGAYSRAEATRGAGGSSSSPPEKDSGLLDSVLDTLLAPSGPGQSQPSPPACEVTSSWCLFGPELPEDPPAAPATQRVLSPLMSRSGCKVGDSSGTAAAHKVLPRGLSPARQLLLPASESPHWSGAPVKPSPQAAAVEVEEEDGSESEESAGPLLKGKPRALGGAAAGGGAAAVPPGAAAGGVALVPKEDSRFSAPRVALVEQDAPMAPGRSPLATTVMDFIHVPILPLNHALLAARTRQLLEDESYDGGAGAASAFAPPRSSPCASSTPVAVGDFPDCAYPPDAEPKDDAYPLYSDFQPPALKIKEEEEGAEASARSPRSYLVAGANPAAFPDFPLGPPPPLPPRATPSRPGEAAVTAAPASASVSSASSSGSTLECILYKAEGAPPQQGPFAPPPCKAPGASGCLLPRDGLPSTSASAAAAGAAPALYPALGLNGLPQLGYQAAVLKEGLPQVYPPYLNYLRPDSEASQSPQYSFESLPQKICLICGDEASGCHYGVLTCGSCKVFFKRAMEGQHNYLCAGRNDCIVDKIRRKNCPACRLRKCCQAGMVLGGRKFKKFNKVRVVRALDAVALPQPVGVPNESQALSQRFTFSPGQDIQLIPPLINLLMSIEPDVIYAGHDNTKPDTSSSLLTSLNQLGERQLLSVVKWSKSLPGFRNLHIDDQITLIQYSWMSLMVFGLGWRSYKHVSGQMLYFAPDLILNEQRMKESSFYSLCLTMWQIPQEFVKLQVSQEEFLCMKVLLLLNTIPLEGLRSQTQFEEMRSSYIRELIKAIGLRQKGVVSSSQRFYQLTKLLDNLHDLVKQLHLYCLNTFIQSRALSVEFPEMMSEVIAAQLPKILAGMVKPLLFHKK
The experiment in a line: Inhibition of human PR.

The next test addresses T2, Glucocorticoid receptor (Homo sapiens, UniProt P04150).
T2 sequence (P04150 whole entry): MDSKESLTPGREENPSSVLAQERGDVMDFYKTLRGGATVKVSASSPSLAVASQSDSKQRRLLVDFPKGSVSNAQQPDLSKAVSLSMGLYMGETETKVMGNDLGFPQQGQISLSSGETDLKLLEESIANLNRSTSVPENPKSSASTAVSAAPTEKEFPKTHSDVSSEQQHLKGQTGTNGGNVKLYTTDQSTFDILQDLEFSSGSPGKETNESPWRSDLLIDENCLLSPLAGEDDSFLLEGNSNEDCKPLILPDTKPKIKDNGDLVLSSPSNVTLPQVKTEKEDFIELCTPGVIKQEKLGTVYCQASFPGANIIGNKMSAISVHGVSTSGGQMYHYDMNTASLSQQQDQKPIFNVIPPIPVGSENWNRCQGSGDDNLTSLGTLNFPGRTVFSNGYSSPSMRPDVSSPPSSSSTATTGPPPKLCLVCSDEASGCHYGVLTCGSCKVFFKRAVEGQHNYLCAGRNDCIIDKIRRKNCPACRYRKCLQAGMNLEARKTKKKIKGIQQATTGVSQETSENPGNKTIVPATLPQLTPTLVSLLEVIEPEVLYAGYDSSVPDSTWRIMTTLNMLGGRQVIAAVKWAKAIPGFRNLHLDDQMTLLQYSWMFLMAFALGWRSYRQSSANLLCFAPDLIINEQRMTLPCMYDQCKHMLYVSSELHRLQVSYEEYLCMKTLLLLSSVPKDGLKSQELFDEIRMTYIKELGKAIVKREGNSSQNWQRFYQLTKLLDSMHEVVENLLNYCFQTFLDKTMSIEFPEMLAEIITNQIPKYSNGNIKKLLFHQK

For test [1], the species on record is Homo sapiens. The experiment in a line: Selectivity for human glucocorticoid receptor over human progesterone receptor.
Test [2] concerns the target T3, Mineralocorticoid receptor (Homo sapiens, UniProt P08235).
T3 sequence (P08235 whole entry): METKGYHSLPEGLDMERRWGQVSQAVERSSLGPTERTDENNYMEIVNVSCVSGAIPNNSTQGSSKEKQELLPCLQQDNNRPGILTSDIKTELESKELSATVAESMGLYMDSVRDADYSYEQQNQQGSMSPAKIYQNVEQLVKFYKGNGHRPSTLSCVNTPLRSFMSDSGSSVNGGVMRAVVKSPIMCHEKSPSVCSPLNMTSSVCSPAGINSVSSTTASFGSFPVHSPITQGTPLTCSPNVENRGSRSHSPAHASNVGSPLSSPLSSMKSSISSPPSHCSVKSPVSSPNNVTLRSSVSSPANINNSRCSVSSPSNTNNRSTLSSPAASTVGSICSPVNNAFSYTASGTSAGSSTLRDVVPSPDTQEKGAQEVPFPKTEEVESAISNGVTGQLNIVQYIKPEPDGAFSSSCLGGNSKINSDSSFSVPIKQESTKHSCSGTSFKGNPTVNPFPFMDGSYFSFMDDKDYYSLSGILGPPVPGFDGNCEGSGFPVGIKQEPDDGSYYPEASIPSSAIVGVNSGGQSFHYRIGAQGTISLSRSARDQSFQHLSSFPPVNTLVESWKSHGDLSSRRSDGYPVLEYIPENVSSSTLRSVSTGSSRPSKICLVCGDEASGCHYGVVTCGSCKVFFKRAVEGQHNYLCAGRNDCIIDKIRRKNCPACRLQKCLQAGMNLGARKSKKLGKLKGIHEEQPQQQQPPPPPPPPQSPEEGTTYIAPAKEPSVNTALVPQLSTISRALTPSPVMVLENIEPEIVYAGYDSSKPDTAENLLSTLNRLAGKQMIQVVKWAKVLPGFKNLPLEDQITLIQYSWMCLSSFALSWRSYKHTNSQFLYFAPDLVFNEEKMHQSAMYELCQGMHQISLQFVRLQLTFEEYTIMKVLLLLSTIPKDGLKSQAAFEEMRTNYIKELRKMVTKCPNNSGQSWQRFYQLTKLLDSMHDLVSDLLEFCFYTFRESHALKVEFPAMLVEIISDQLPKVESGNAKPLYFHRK
Kind of test: Inhibition of human MR.

Test [3] is filed under the species Homo sapiens. Kind of test: Selectivity for human glucocorticoid receptor over human mineralocorticoid receptor.

Regarding `CC(Cc1c[nH]c2ccccc12)NS(=O)(=O)c1c(Cl)cc(Cl)cc1Cl` (centres undefined), the concentration for half-maximal inhibition (IC50) against Progesterone receptor turned out to be 570 nM; on Glucocorticoid receptor, 64 nM; in test [2], 130 nM. The Ratio IC50 in the test listed under Homo sapiens [1] was 8.
Take `Cc1cc(C)c(S(=O)(=O)NC(C)Cc2c[nH]c3ccccc23)c(C)c1` (centres undefined): the Ratio IC50 came to 7 in the test filed under Homo sapiens [3] and 35 in the test listed under Homo sapiens [1]. Moreover, the IC50 against Progesterone receptor was found to be 1400 nM; at Glucocorticoid receptor, 40 nM; in test [2], 290 nM.

Broadly, the IC50 is the concentration needed to halve the response being measured. Read a high IC50 as weaker potency in that assay.
